# Key:
# Assay in all cases: relative viability (nuclei count vs DMSO), 5 days (fraction); higher = more cells survive
# Salubrinal + Vorinostat = compound: O=C(/C=C/c1ccccc1)NC(NC(=S)Nc1cccc2cccnc12)C(Cl)(Cl)Cl [Salubrinal] + O=C(CCCCCCC(=O)Nc1ccccc1)NO [Vorinostat] (partner 1 µM)
# Procedure, shortened: (§1)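 Each reported value is a median over duplicate plates. It expresses relative viability: treated-well nuclei count divided by vehicle-well nuclei count. Lung cancer cell lines in 1536-well plates were dosed by pin tool a day after seeding, alone with one drug or with a fixed anchor-drug dose plus five library-drug doses (not always all listed) in √10 steps, and nuclei were counted after 5 days.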
# Salubrinal + OSI-027 = compound: O=C(/C=C/c1ccccc1)NC(NC(=S)Nc1cccc2cccnc12)C(Cl)(Cl)Cl [Salubrinal] + COc1cccc2cc(-c3nc([C@H]4CC[C@H](C(=O)O)CC4)n4ncnc(N)c34)[nH]c12 [OSI-027] (partner 0.5 µM)
# Procedure, shortened: as §1
# Salubrinal + Linsitinib = compound: O=C(/C=C/c1ccccc1)NC(NC(=S)Nc1cccc2cccnc12)C(Cl)(Cl)Cl [Salubrinal] + C[C@]1(O)C[C@@H](c2nc(-c3ccc4ccc(-c5ccccc5)nc4c3)c3c(N)nccn32)C1 [Linsitinib] (partner 1 µM)
# Procedure, shortened: as §1
# Salubrinal + Alpelisib = compound: O=C(/C=C/c1ccccc1)NC(NC(=S)Nc1cccc2cccnc12)C(Cl)(Cl)Cl [Salubrinal] + Cc1nc(NC(=O)N2CCC[C@H]2C(N)=O)sc1-c1ccnc(C(C)(C)C(F)(F)F)c1 [Alpelisib] (partner 2 µM)
# Procedure, shortened: as §1
Cell Line,relative viability (Salubrinal + Vorinostat; first compound 0.08 µM),relative viability (Salubrinal + Vorinostat; first compound 0.253 µM),relative viability (Salubrinal + Vorinostat; first compound 0.8 µM),relative viability (Salubrinal + Vorinostat; first compound 2.53 µM),relative viability (Salubrinal + Vorinostat; first compound 8 µM),relative viability (Salubrinal + OSI-027; first compound 0.08 µM),relative viability (Salubrinal + OSI-027; first compound 0.253 µM),relative viability (Salubrinal + OSI-027; first compound 0.8 µM),relative viability (Salubrinal + OSI-027; first compound 2.53 µM),relative viability (Salubrinal + OSI-027; first compound 8 µM),relative viability (Salubrinal + Linsitinib; first compound 0.08 µM),relative viability (Salubrinal + Linsitinib; first compound 0.253 µM),relative viability (Salubrinal + Linsitinib; first compound 0.8 µM),relative viability (Salubrinal + Linsitinib; first compound 2.53 µM),relative viability (Salubrinal + Linsitinib; first compound 8 µM),relative viability (Salubrinal + Alpelisib; first compound 0.08 µM),relative viability (Salubrinal + Alpelisib; first compound 0.253 µM),relative viability (Salubrinal + Alpelisib; first compound 0.8 µM),relative viability (Salubrinal + Alpelisib; first compound 2.53 µM),relative viability (Salubrinal + Alpelisib; first compound 8 µM)
NCI-H522,1.03,0.944,0.972,0.889,0.844,0.74,0.661,0.734,0.791,0.571,–,–,–,–,–,–,–,–,–,–
HCC-15,0.952,0.784,0.866,0.826,0.804,0.722,0.665,0.824,0.666,0.644,0.946,0.801,0.952,0.964,0.87,0.988,0.789,0.994,0.94,0.945
A-427,0.859,0.905,0.896,0.814,0.827,0.409,0.516,0.568,0.437,0.452,1.12,1.2,1.1,1.08,1.22,1.06,1.16,1.17,1.16,1.15
NCI-H2228,0.99,–,0.652,0.659,0.642,0.5,0.468,0.596,0.558,0.547,0.768,0.813,0.791,0.581,0.629,0.87,0.582,0.792,0.861,0.725
NCI-H1734,0.834,0.801,0.916,0.77,0.745,0.724,0.572,0.633,0.542,0.636,0.931,0.858,1.02,0.976,0.826,0.721,0.695,0.833,0.737,0.749
PC-14,0.719,0.585,0.672,0.645,0.5,0.966,0.822,0.98,0.798,0.616,1.02,0.899,1.06,0.975,0.892,1.05,0.756,1.14,0.968,0.562
NCI-H1915,0.516,–,0.614,0.521,0.471,0.628,0.609,0.716,0.682,0.637,1.02,1.06,1.16,1.1,1.13,1.06,1.08,1.11,1.06,1.04
NCI-H1666,0.99,0.886,0.99,1.16,1.11,0.953,0.763,0.894,0.806,0.848,0.78,0.777,0.869,0.735,0.797,0.985,0.791,0.923,1.01,0.993
HCC-366,0.494,–,0.443,0.364,0.345,1.04,1.13,0.91,0.844,0.549,1.01,0.408,0.883,0.671,0.57,0.609,0.361,0.426,0.472,0.326
NCI-H2170,0.861,0.742,0.923,0.956,0.638,0.71,0.702,0.783,0.687,0.47,–,–,–,–,–,0.883,0.703,0.859,0.811,0.706
SW 1573,0.852,0.686,0.778,0.55,0.62,0.763,0.622,0.589,0.565,0.493,0.903,0.759,0.718,0.792,0.844,0.802,0.909,0.827,1.04,0.604
NCI-H661,0.839,0.739,0.852,0.806,0.793,0.781,0.58,0.77,0.705,0.603,0.701,0.464,0.509,0.561,0.464,0.572,0.864,0.937,0.845,0.686
PC-3 [JPC-3],0.713,0.71,1.07,0.934,0.762,0.7,0.538,0.751,0.913,0.729,0.927,0.999,0.982,0.928,0.937,1.08,0.98,1.13,1.07,1.03
NCI-H2342,0.666,0.631,0.715,0.668,0.768,0.653,0.523,0.608,0.639,0.561,–,–,–,–,–,–,–,–,–,–
Calu-6,–,–,–,–,–,–,–,–,–,–,0.983,0.842,1.08,0.928,0.992,0.94,0.936,1.07,1.04,0.942
LC-2-ad,0.735,0.644,0.692,0.651,0.665,0.91,0.797,1.03,0.818,0.782,0.932,0.812,0.912,0.817,0.844,1.01,0.784,0.92,0.881,0.831
CAL-12T,0.903,0.676,0.989,0.681,0.672,0.444,0.541,0.606,0.542,0.454,0.754,0.883,0.971,0.806,0.726,1.6,0.712,1.31,1.17,1.02

Cell Line,relative viability (Salubrinal + Vorinostat; first compound 0.08 µM),relative viability (Salubrinal + Vorinostat; first compound 0.253 µM),relative viability (Salubrinal + Vorinostat; first compound 0.8 µM),relative viability (Salubrinal + Vorinostat; first compound 2.53 µM),relative viability (Salubrinal + Vorinostat; first compound 8 µM),relative viability (Salubrinal + OSI-027; first compound 0.08 µM),relative viability (Salubrinal + OSI-027; first compound 0.253 µM),relative viability (Salubrinal + OSI-027; first compound 0.8 µM),relative viability (Salubrinal + OSI-027; first compound 2.53 µM),relative viability (Salubrinal + OSI-027; first compound 8 µM),relative viability (Salubrinal + Linsitinib; first compound 0.08 µM),relative viability (Salubrinal + Linsitinib; first compound 0.253 µM),relative viability (Salubrinal + Linsitinib; first compound 0.8 µM),relative viability (Salubrinal + Linsitinib; first compound 2.53 µM),relative viability (Salubrinal + Linsitinib; first compound 8 µM),relative viability (Salubrinal + Alpelisib; first compound 0.08 µM),relative viability (Salubrinal + Alpelisib; first compound 0.253 µM),relative viability (Salubrinal + Alpelisib; first compound 0.8 µM),relative viability (Salubrinal + Alpelisib; first compound 2.53 µM),relative viability (Salubrinal + Alpelisib; first compound 8 µM)
RERF-LC-KJ,0.784,0.642,0.745,0.673,0.721,0.595,0.512,0.58,0.548,0.437,0.896,0.806,0.931,0.791,0.846,0.912,0.824,0.925,0.813,0.698
NCI-H1650,0.76,0.592,0.672,0.456,0.648,0.929,0.525,0.718,0.583,0.607,–,–,–,–,–,–,–,–,–,–
BEN,0.52,0.543,0.645,0.507,0.571,0.322,0.407,0.318,0.309,0.324,1.15,0.624,1.23,0.931,0.892,1.23,0.82,1.3,1,1.03
EMC-BAC-2,0.388,0.477,0.798,0.514,0.494,0.364,0.359,0.41,0.384,0.427,0.901,0.682,0.856,0.77,0.858,0.802,0.709,0.786,0.82,0.702
LU99A,0.621,0.481,0.578,0.546,0.513,0.241,0.29,0.306,0.294,0.265,0.611,0.545,0.579,0.59,0.515,0.644,0.559,0.66,0.476,0.53
ABC-1,1.14,0.947,0.971,1.34,1.11,0.513,0.578,0.712,0.626,0.371,0.802,0.753,0.76,0.952,0.781,1,0.952,1.2,1,1.12
NCI-H1299,–,–,–,–,–,–,–,–,–,–,0.964,0.876,1.09,1,0.96,1.04,1.03,1.05,1.15,0.982
EBC-1,–,–,–,–,–,–,–,–,–,–,0.767,0.844,1.03,0.873,0.897,0.869,0.952,0.976,0.811,0.736
NCI-H1792,–,–,–,–,–,0.97,–,0.626,0.75,0.684,0.805,–,0.606,0.482,0.457,0.8,–,0.646,0.676,0.611
ChaGo-K-1,0.834,0.683,0.901,0.814,0.77,0.731,0.479,0.581,0.612,0.435,–,–,–,–,–,–,–,–,–,–
NCI-H1648,0.431,0.419,0.649,0.345,0.242,0.23,0.268,0.257,0.269,0.266,–,–,–,–,–,–,–,–,–,–
NCI-H1623,–,–,–,–,–,0.482,0.387,0.544,0.386,0.44,–,–,–,–,–,–,–,–,–,–
A549,–,–,–,–,–,–,–,–,–,–,0.709,0.568,0.669,0.558,0.54,0.726,0.806,0.755,0.76,0.616
NCI-H1563,–,–,–,–,–,0.784,0.751,0.74,0.741,0.695,1.1,1.26,1.14,1.21,1.12,0.882,0.939,1.1,0.925,0.878
IA-LM,0.974,0.645,0.882,0.816,1.03,–,–,–,–,–,0.256,0.472,0.704,0.519,1.09,0.828,0.906,0.885,0.66,0.747
NCI-H1703,–,–,–,–,–,–,–,–,–,–,0.515,0.997,0.712,0.685,0.644,0.394,0.359,0.324,0.365,0.374
SW 900,0.735,0.379,0.731,0.505,0.804,0.545,–,0.737,0.576,0.481,–,–,–,–,–,–,–,–,–,–

# — the supplement of paper PMC10307832
